# Where two headings read alike, the source gives them in different places.
# Legend:
# [1] = cited from earlier work
# [2] = cited from earlier work; remark: listed apart in the source
# [3] = 24 h, 0.25 mmol/L, pH 8
# [4] = 24 h, 0.25 mmol/L, pH 10.2
# [5] = 24 h, 0.25 mmol/L
# [6] = 24 h, 0.25 mmol/L, pH 10.2; remark: listed apart in the source
# [7] = 24 h, 0.25 mmol/L, pH 8; remark: listed apart in the source
# [8] = NAL depletion under and without ultraviolet irradiation, HPLC with fluorescence detection (284 nm excitation, 333 nm fluorescence); details: for NAL Depletion (%): without light irradiation
# [9] = NAC depletion under and without ultraviolet irradiation, HPLC with fluorescence detection (284 nm excitation, 333 nm fluorescence); details: for NAC Depletion (%): without light irradiation
# [10] = NAC depletion under and without ultraviolet irradiation, HPLC with UV detection (281 nm); details: for NAC Depletion (%) without light irradiation: 25° C. 24 hours light-shielded; for NAC Depletion (%) without light irradiation / NAC Depletion (%) under light irradiation: test substance solution 1 mmol/L; for NAC Depletion (%) under light irradiation: 2,000 μW/cm^2 for 1 hour then 25° C. 23 hours
# [11] = Average score of NAC and NAL depletion and phototoxicity or photoallergy determination, fluorescence detection; details: for Average score (%): without light irradiation
# [12] = NAL depletion under and without ultraviolet irradiation, HPLC with UV detection (281 nm); details: for NAL Depletion (%) without light irradiation: 25° C. 24 hours light-shielded; for NAL Depletion (%) without light irradiation / NAL Depletion (%) under light irradiation: test substance solution 1 mmol/L; for NAL Depletion (%) under light irradiation: 2,000 μW/cm^2 for 1 hour then 25° C. 23 hours
# [13] = Average score of NAC and NAL depletion and phototoxicity or photoallergy determination, UV detection; details: for Average score (%) under light irradiation / Average score (%) without light irradiation: average of NAC and NAL depletion
# [14] = 25° C. 24 hours light-shielded, test substance solution 1 mmol/L
# [15] = 2,000 μW/cm^2 for 1 hour then 25° C. 23 hours, test substance solution 1 mmol/L
# [16] = without light irradiation, single compound
# [17] = average of NAC and NAL depletion
Molecule,Difference in depletion (under light irradiation - without light irradiation) NAL (%) [6] [%],NAL Depletion (%) under light irradiation [6] [%],NAL Depletion (%) without light irradiation [6] [%],Difference in depletion (under light irradiation - without light irradiation) NAC (%) [7] [%],NAC Depletion (%) under light irradiation [7] [%],NAC Depletion (%) without light irradiation [7] [%],In vivo photoallergy ([1]; reported in References 1 and 2),In vivo phototoxicity ([2]; reported in References 1 to 3),Difference in depletion (under light irradiation - without light irradiation) NAL (%) ([8]; single compound),NAL Depletion (%) ([8]; single compound),Difference in depletion (under light irradiation - without light irradiation) NAC (%) ([9]; single compound),NAC Depletion (%) ([9]; single compound),NAC Depletion (%) without light irradiation [10] [%],NAC Depletion (%) under light irradiation [10] [%],Difference in depletion (under light irradiation - without light irradiation) Average score (%) ([11]; single compound),Average score (%) ([11]; single compound),Difference in depletion (under light irradiation - without light irradiation) NAL (%) [12] [%],NAL Depletion (%) without light irradiation [12] [%],NAL Depletion (%) under light irradiation [12] [%],Average score (%) without light irradiation [13] [%],also measured
"CCCCC(CC)COC(=O)c1ccc(N(C)C)cc1 (stereo not drawn) [No. 19, 2-ethylhexyl p-dimethylaminobenzoate]",–,–,–,–,–,–,–,–,–,–,–,–,–,–,–,–,–,–,–,–,In vivo photoallergy ([1]; in vivo): Positive; In vivo phototoxicity ([2]; in vivo): Negative; NAC Depletion (%) [3]: 98.1%; NAL Depletion (%) [4]: 1.3%
"Oc1ccc(Cl)cc1Cc1cc(Cl)ccc1O [No. 21, Dichlorophen]",–,–,–,–,–,–,–,–,–,–,–,–,–,–,–,–,–,–,–,–,In vivo photoallergy ([1]; in vivo): Positive; Average score (%) [5]: 56.5%; NAC Depletion (%) [3]: 98.5%; NAL Depletion (%) [4]: 14.5%
CC1(C)SC2C(NC(=O)Cc3ccccc3)C(=O)N2C1C(=O)O (stereo not drawn) [compound 44],–,–,–,–,–,–,Negative,Negative,0.4,0.8,1.3,1.1,1.4,2.8,0.9,1.0,−0.2,1.9,1.6,1.6,Difference in depletion (under light irradiation - without light irradiation) NAC (%) [10]: 1.5%; Difference in depletion (under light irradiation - without light irradiation) Average score (%) [13]: 0.6%; Average score (%) under light irradiation [13]: 2.2%
CC(C)O [compound 47],–,–,–,–,–,–,Negative,Negative,0.3,0.0,−0.5,0.5,0.0,1.7,−0.1,0.3,−1.2,1.5,0.3,0.8,Difference in depletion (under light irradiation - without light irradiation) NAC (%) [10]: 1.7%; Difference in depletion (under light irradiation - without light irradiation) Average score (%) [13]: 0.2%; Average score (%) under light irradiation [13]: 1.0%
CCO [compound 50],–,–,–,–,–,–,Negative,Negative,0.0,0.0,−0.3,0.3,0.0,0.4,−0.1,0.1,−1.3,1.3,0.0,0.6,Difference in depletion (under light irradiation - without light irradiation) NAC (%) [10]: 0.4%; Difference in depletion (under light irradiation - without light irradiation) Average score (%) [13]: −0.5%; Average score (%) under light irradiation [13]: 0.2%
C[S+](C)[O-] [compound 58],–,–,–,–,–,–,Negative,Negative,–,–,–,–,–,–,–,–,–,–,–,–,"Difference in depletion (under light irradiation - without light irradiation) NAL (%) [8]: 0.0%; NAL Depletion (%) without light irradiation [8, 14]: 0.0%; NAL Depletion (%) under light irradiation [8, 15]: 0.0%; Difference in depletion (under light irradiation - without light irradiation) NAC (%) [9]: 0.1%; NAC Depletion (%) without light irradiation [9, 14]: 0.0%; NAC Depletion (%) under light irradiation [9, 15]: 0.2%; Difference in depletion (under light irradiation - without light irradiation) NAC (%) ([10]; single compound): 0.7%; NAC Depletion (%) [10, 16]: 0.0%; Difference in depletion (under light irradiation - without light irradiation) Average score (%) [11]: 0.1%; Average score (%) under light irradiation [11, 17]: 0.1%; Average score (%) without light irradiation [11, 17]: 0.0%; Difference in depletion (under light irradiation - without light irradiation) NAL (%) ([12]; single compound): −0.2%; NAL Depletion (%) [12, 16]: 0.2%; Difference in depletion (under light irradiation - without light irradiation) Average score (%) ([13]; single compound): 0.3%; Average score (%) [13, 16]: 0.1%"
Tetrachlorosalicylanilide [compound 12],–,–,–,–,–,–,Positive,Positive,81.5,5.0,39.4,58.0,66.8,−200.9,60.4,31.5,77.9,4.2,82.1,35.5,–

# Continued, in another order:
Difference in depletion (under light irradiation - without light irradiation) NAL (%) [6] [%],NAL Depletion (%) under light irradiation [6] [%],NAL Depletion (%) without light irradiation [6] [%],Difference in depletion (under light irradiation - without light irradiation) NAC (%) [7] [%],NAC Depletion (%) under light irradiation [7] [%],NAC Depletion (%) without light irradiation [7] [%],Molecule,In vivo photoallergy ([1]; reported in References 1 and 2),In vivo phototoxicity ([2]; reported in References 1 to 3),Difference in depletion (under light irradiation - without light irradiation) NAL (%) ([8]; single compound),NAL Depletion (%) ([8]; single compound),Difference in depletion (under light irradiation - without light irradiation) NAC (%) ([9]; single compound),NAC Depletion (%) ([9]; single compound),NAC Depletion (%) without light irradiation [10] [%],NAC Depletion (%) under light irradiation [10] [%],Difference in depletion (under light irradiation - without light irradiation) Average score (%) ([11]; single compound),Average score (%) ([11]; single compound),Difference in depletion (under light irradiation - without light irradiation) NAL (%) [12] [%],NAL Depletion (%) without light irradiation [12] [%],NAL Depletion (%) under light irradiation [12] [%],Average score (%) without light irradiation [13] [%],also measured
5.5,5.7,0.2,95.8,96.3,0.5,"Cc1ccc2oc(=O)ccc2c1 [compound 2, 6-Methylcoumarin]",Positive,Positive,–,–,–,–,–,–,–,–,–,–,–,–,–
−0.2,0.0,0.2,25.5,26.1,0.6,"Nc1ccc(S(N)(=O)=O)cc1 [compound 27, Sulfanilamide]",Positive,–,–,–,–,–,–,–,–,–,–,–,–,–,–
19.3,20.3,1.0,93.6,93.6,0.0,"CCOc1ccc2c(C)cc(=O)oc2c1 [compound 29, 4-Methyl-7-ethoxycoumarin]",Positive,–,–,–,–,–,–,–,–,–,–,–,–,–,–
6.9,8.4,1.5,99.4,100.0,0.6,"CC(=O)c1ccc2ccccc2c1 [compound 37, Methyl β-naphthyl ketone]",–,–,–,–,–,–,–,–,–,–,–,–,–,–,–
3.3,6.1,2.8,3.7,5.5,1.8,"CCCCCCCCCCCCCCCCO [compound 49, Cetyl alcohol]",Negative,Negative,–,–,–,–,–,–,–,–,–,–,–,–,–
